{
  "source": "patent US7838695B2",
  "about": "“Neuroactive substance and uses of one such substance” (Universite de Nantes, priority 2003, dated 2010)",
  "key": {"[1]": {"test_system": "cockroach DUM neurons", "assay": "Spontaneous pacemaker electrical activity of DUM neurons (whole cell patch-clamp)", "format": "cell-based, Periplaneta americana", "procedure": "(§1) A second experiment was conducted on dorsal unpaired median neurons (DUM neurons) from the central nervous system of cockroaches (Periplaneta americana). In particular, these neurons secrete a biogenous amine, octopamine, a neuromediator wherein the chemical structure is similar to […] in vertebrates. They represent a good study model as they display electrophysiological properties similar to those of dopaminergic neurons in vertebrates. These DUM neurons are isolated from the medio-dorsal line of the last terminal abdominal ganglion of the nerve chain of adult male cockroaches, by means of enzyme digestion and mechanical dissociation, according to the technique described by […] et al (J. Exp. Biol., 1989, 144; 535-549). The neurons isolated in this way are kept in culture at 29° C. for 24 hrs before testing. The whole cell configuration patch-clamp technique is used to measure the electrical activity and the calcium currents (imposed potential and/or current conditions) according to the model described by Grolleau and […]. Neurophysiol. 1995, 73; 160-171)."}, "[2]": {"test_system": "axonal cockroach sodium and potassium channels", "assay": "Isolated giant axon under imposed potential and imposed current", "format": "cell-based, Periplaneta americana", "procedure": "Firstly, the neuronal sodium and potassium channels were studied. These channels are involved in action potential generation. This study was conducted on cockroach (Periplaneta americana) giant axons. The giant axon of these cockroaches was isolated in ventral abdominal nerve chain connective tissue. During the experiment, the axon is immersed in physiological fluid. The experiment is performed under imposed potential and imposed current in the absence and presence of the substance according to formula (II)."}, "[3]": {"test_system": "transient LVA calcium channels (tLVA)", "assay": "tLVA calcium current in DUM neurons (overall LVA minus mLVA)", "format": "cell-based, Periplaneta americana"}, "[4]": {"test_system": "Phormia terrae novae larvae", "assay": "Neuroactivity test by injection in Diptera larvae", "format": "in vivo", "procedure": "The neuroactivity of the substance according to formula (I) was then tested by injecting in Diptera larvae. Within this scope, the inventors used Phormia terrae novae species Cyloraphe larvae at larval stage III, just before the imago stage enabling metamorphosis to a pupa or nymph. […] The product is injected using a precision micro-syringe fitted with a bevelled hypodermic needle. The needle is inserted into the last abdominal segment of the animal on the dorsal side. The injection is deemed successful if the larva is still mobile at the tip of the needle. In this type of test, contraction or relaxation for at least 5 seconds is defined as a positive response, but the intensity and duration are dose-dependent while the absence of any symptom for 10 min represents a negative response. Substance (II) was tested by injecting a single 350 μg dose of product per larva (mean larva weight 70 mg), by injecting 7 A1 of a 50 mg/ml solution of the product in the 85-15 v/v water:DMSO mixture. This concentration was then diluted by half until no larval activity was detected."}, "[5]": {"test_system": "maintained LVA calcium channels (mLVA)", "assay": "mLVA calcium current in DUM neurons in the presence of nickel chloride (patch-clamp)", "format": "cell-based, Periplaneta americana", "conditions": "in the presence of 100 μm nickel chloride"}, "[6]": {"test_system": "high voltage activated calcium channels (HVA)", "assay": "HVA calcium current in DUM neurons (patch-clamp)", "format": "cell-based, Periplaneta americana"}, "[7]": {"test_system": "low voltage activated calcium channels (LVA)", "assay": "Overall LVA calcium current in DUM neurons (patch-clamp)", "format": "cell-based, Periplaneta americana", "conditions": "+50 mV depolarising pulse from −100 mV reference potential"}, "[8]": {"test_system": "cockroach DUM neurons", "assay": "Electrical activity of DUM neurons activated by injecting depolarising current", "format": "cell-based, Periplaneta americana", "procedure": "as §1, with “160-171). Experiments were also conducted on an electrical activity activated by injecting a level of depolarising current controlled in amplitude and duration (FIG. 6). The results obtained under these conditions are in agreement with the experiments conducted on spontaneous activity. […]” for “160-171).”"}},
  "note": "Entries after “also recorded” stand apart in the source; their conditions may differ.",
  "data": [
    {"smiles": "CC(=O)O[C@@H]1CC[C@@]23O[C@@H]2[C@H](O)C[C@@H](C)[C@]3(C)[C@@H]1C(C)=O", "note": "[substance according to formula (II), 6S-acetyl-4R,5R-dimethyl-1R(10S)-epoxy-2R-hydroxy-7R-acetoxydecahydronaphthalene]", "values": [
      {"measurement": "action potential amplitude", "setting": "[1]; 4-AP 2 mM", "value": "remains unchanged"},
      {"measurement": "post-hyperpolarisation phase", "setting": "[1]; 4-AP 2 mM", "value": "increased"},
      {"measurement": "pre-depolarisation slope", "setting": "[1]; 4-AP 2 mM", "value": "higher"},
      {"measurement": "action potential frequency increased by a factor", "setting": "[1]; 100 μm substance, in the presence of 4-AP 2 mM", "value": 2.1},
      {"measurement": "activity on axonal sodium and potassium channels (change on the action potential)", "setting": "[2]", "value": "no activity"},
      {"measurement": "action on tLVA calcium channel", "setting": "[3]", "value": "specific activator; also recorded: specific action; also recorded: potentiating"},
      {"measurement": "MAC", "setting": "[4]; calculated with molecular weight 296 g per mole", "value": "approximately 1 mM/mg of larvae"},
      {"measurement": "minimum active concentration on diptera larvae", "setting": "[4]; injection into larvae, halving dilutions until no larval activity", "value": "3.1 μg per μl and per 10 mg of larvae"},
      {"measurement": "amplitude of the mLVA current", "setting": "[5]", "value": "neither the amplitude of the mLVA current (FIGS. 10 and 11) or that of HVA are modified"},
      {"measurement": "reduction of HVA calcium current amplitude", "setting": "[6]; +90 mV depolarising pulse from −100 mV reference potential, n=7", "value": 9, "unit": "%"},
      {"measurement": "amplitude of the HVA current", "setting": "[6]; in the presence of 100 μm nickel chloride", "value": "neither the amplitude of the mLVA current (FIGS. 10 and 11) or that of HVA are modified"},
      {"measurement": "maintained component measured at the end of the depolarising pulse", "setting": "[7]", "value": "not affected"},
      {"measurement": "increase of amplitude of the overall LVA calcium current", "setting": "[7]; n=7", "value": 81, "unit": "%"},
      {"measurement": "action potential amplitude or duration", "setting": "[8]", "value": "No change"},
      {"measurement": "discharge frequency", "setting": "[8]", "value": "increase in the discharge frequency"}
    ]}
  ]
}
